These results are taken from US20150010928A1, “MEANS AND METHODS FOR ASSESSING AN ENDOCRINE DISEASE OR DISORDER” (priority 2012, published 2015).

This series has as its system male rats. The experiment in a line: Plasma metabolite profiling (GC-MS, LC-MS, SPE-LC-MS) in male rats dosed once daily over 28 days (OECD 407). Type of series: in vivo, rat. The conditions noted are these: high dose; for Cholesterol / Choline plasmalogen No 02 / Lignoceric acid (C24:0) / Sphingomyelin (d18:1, C16:0) / Sphingomyelin (d18:2, C16:0) / erythro-Sphingosine (d18:1): Table 14b. In a few lines:
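Polar and lipid fractions profiled by GC-MS and LC-MS/MRM, steroids by online SPE-LC-MS; pool-normalized data compared to controls by Welch test as treatment ratios and p-values.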

Marks after values point to notes of the source that are not given here.

Regarding `CC/C(=C(\c1ccccc1)c1ccc(OCCN(C)C)cc1)c1ccccc1` [Tamoxifen], where the note is “m7”, the Cholesterol stood at 0.45; the “Choline plasmalogen No 02” value was found to be 0.59; the “Lignoceric acid (C24:0)” value was 0.49; the “Sphingomyelin (d18:1, C16:0)” value was 0.41. In addition, where the note is “m7”, the “Sphingomyelin (d18:2, C16:0)” value amounted to 0.49 and the “erythro-Sphingosine (d18:1)” value is listed as 0.28. For the same molecule, for the setting “m14”, the Cholesterol is listed as 0.51; the “Choline plasmalogen No 02” value stood at 0.6; the “Lignoceric acid (C24:0)” value is listed as 0.63; the “Sphingomyelin (d18:1, C16:0)” value is recorded as 0.63. For the setting “m14”, the “Sphingomyelin (d18:2, C16:0)” value was 0.52 and the “erythro-Sphingosine (d18:1)” value turned out to be 0.41. In addition, for the setting “m28”, the Cholesterol amounted to 0.51; the “Choline plasmalogen No 02” value is reported as 0.68; the “Lignoceric acid (C24:0)” value is given as 0.63; the “Sphingomyelin (d18:1, C16:0)” value is 0.6. Under “m28”, the “Sphingomyelin (d18:2, C16:0)” value came to 0.6 and the “erythro-Sphingosine (d18:1)” value stood at 0.42.
For `CC1(C)CCC(=Cc2ccc(Cl)cc2)C1(O)Cn1cncn1` (stereo not shown) [Triticonazole], the “Glycerol, polar fraction” value (m7, male rats, Table 16) worked out at 1.03. Further, the Testosterone by setting is: (m7, male rats, Table 16) 0.55 *; (m14, male rats, Table 16) 1.03; (m28, male rats, Table 16) 0.23 *.
For `C=CC1(C)OC(=O)N(c2cc(Cl)cc(Cl)c2)C1=O` (stereo not shown) [Vinclozolin], the Testosterone was 1.41^ (m7, Table 11a); 2.44 * (m14, Table 11a); 1.09^ (m28, Table 11a).
